Data from BindingDB's records for PubMed 15050915 (Novartis Institutes for BioMedical Research).

Assay: Inhibition of PDK1 (unknown origin)

Structure (SMILES): Nc1ncnc2c1c(-c1cccc(OCc3ccccc3)c1)cn2[C@H]1C[C@@H](CN2CCC2)C1
- IC50: 4.8 µM
